According to PMC11480411, “Mucosal sugars delineate pyrazine vs pyrazinone autoinducer signaling in Klebsiella oxytoca” (Nature Communications, 2024):

Key:
Assay in all cases: PRESTO-Tango GPCR screen
Assay type in all cases: cell-based
Details in all cases: 100 µM
[1] = target: T1, ADRB1 (Homo sapiens, UniProt P08588)
T1 construct: purchased PRESTO-Tango GPCR kit (Roth lab / Addgene)
Summary of the method: (§1)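 In this arrestin-recruitment reporter assay, HEK293-derived HTLA cells expressing a transfected receptor-Tango fusion are treated for 20 h with compound at a final 100 μM. Luciferase output is quantified with Bright-Glo and reported relative to PBS.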

[2] = target: T2, AGTR2 (Homo sapiens, UniProt P50052)
T2 construct: purchased PRESTO-Tango GPCR kit (Roth lab / Addgene)
Summary of the method: as §1

[3] = target: T3, CCR2 (Homo sapiens, UniProt P41597)
T3 construct: purchased PRESTO-Tango GPCR kit (Roth lab / Addgene)
Summary of the method: as §1

[4] = target: T4, GLP2R (Homo sapiens, UniProt O95838)
T4 construct: purchased PRESTO-Tango GPCR kit (Roth lab / Addgene)
Summary of the method: as §1

[5] = target: T5, GNRHR (Homo sapiens, UniProt P30968)
T5 construct: purchased PRESTO-Tango GPCR kit (Roth lab / Addgene)
Summary of the method: as §1

[6] = target: T6, GPR110 (Homo sapiens, UniProt Q5T601)
T6 construct: purchased PRESTO-Tango GPCR kit (Roth lab / Addgene)
Summary of the method: as §1

[7] = target: T7, GPR124 (Homo sapiens, UniProt Q96PE1)
T7 construct: purchased PRESTO-Tango GPCR kit (Roth lab / Addgene)
Summary of the method: as §1

[8] = target: T8, GPR143 (Homo sapiens, UniProt P51810)
T8 construct: purchased PRESTO-Tango GPCR kit (Roth lab / Addgene)
Summary of the method: as §1

[9] = target: T9, GPR146 (Homo sapiens, UniProt Q96CH1)
T9 construct: purchased PRESTO-Tango GPCR kit (Roth lab / Addgene)
Summary of the method: as §1

[10] = target: T10, GPR153 (Homo sapiens, UniProt Q6NV75)
T10 construct: purchased PRESTO-Tango GPCR kit (Roth lab / Addgene)
Summary of the method: as §1

[11] = target: T11, GPR157 (Homo sapiens, UniProt Q5UAW9)
T11 construct: purchased PRESTO-Tango GPCR kit (Roth lab / Addgene)
Summary of the method: as §1

[12] = target: T12, GPR174 (Homo sapiens, UniProt Q9BXC1)
T12 construct: purchased PRESTO-Tango GPCR kit (Roth lab / Addgene)
Summary of the method: as §1

[13] = target: T13, GPR18 (Homo sapiens, UniProt Q14330)
T13 construct: purchased PRESTO-Tango GPCR kit (Roth lab / Addgene)
Summary of the method: as §1

[14] = target: T14, GPR19 (Homo sapiens, UniProt Q15760)
T14 construct: purchased PRESTO-Tango GPCR kit (Roth lab / Addgene)
Summary of the method: as §1

[15] = target: T15, GPR31 (Homo sapiens, UniProt O00270)
T15 construct: purchased PRESTO-Tango GPCR kit (Roth lab / Addgene)
Summary of the method: as §1

[16] = target: T16, GPR82 (Homo sapiens, UniProt Q96P67)
T16 construct: purchased PRESTO-Tango GPCR kit (Roth lab / Addgene)
Summary of the method: as §1

[17] = target: T17, GPR87 (Homo sapiens, UniProt Q9BY21)
T17 construct: purchased PRESTO-Tango GPCR kit (Roth lab / Addgene)
Summary of the method: as §1

[18] = target: T18, GRM2 (Homo sapiens, UniProt Q14416)
T18 construct: purchased PRESTO-Tango GPCR kit (Roth lab / Addgene)
Summary of the method: as §1

[19] = target: T19, GRM6 (Homo sapiens, UniProt O15303)
T19 construct: purchased PRESTO-Tango GPCR kit (Roth lab / Addgene)
Summary of the method: as §1

[20] = target: T20, HCA3 (Homo sapiens, UniProt P49019)
T20 construct: purchased PRESTO-Tango GPCR kit (Roth lab / Addgene)
Summary of the method: as §1

[21] = target: T21, HCTR2 (Homo sapiens, UniProt O43614)
T21 construct: purchased PRESTO-Tango GPCR kit (Roth lab / Addgene)
Summary of the method: as §1

[22] = target: T22, HTR1B (Homo sapiens, UniProt P28222)
T22 construct: purchased PRESTO-Tango GPCR kit (Roth lab / Addgene)
Summary of the method: as §1

[23] = target: T23, HTR1F (Homo sapiens, UniProt P30939)
T23 construct: purchased PRESTO-Tango GPCR kit (Roth lab / Addgene)
Summary of the method: as §1

[24] = target: T24, HTR2A (Homo sapiens, UniProt P28223)
T24 construct: purchased PRESTO-Tango GPCR kit (Roth lab / Addgene)
Summary of the method: as §1

[25] = target: T25, LPAR1 (Homo sapiens, UniProt Q92633)
T25 construct: purchased PRESTO-Tango GPCR kit (Roth lab / Addgene)
Summary of the method: as §1

[26] = target: T26, MAS1 (Homo sapiens, UniProt P04201)
T26 construct: purchased PRESTO-Tango GPCR kit (Roth lab / Addgene)
Summary of the method: as §1

[27] = target: T27, MCHR1 (Homo sapiens, UniProt Q99705)
T27 construct: purchased PRESTO-Tango GPCR kit (Roth lab / Addgene)
Summary of the method: as §1

[28] = target: T28, NMUR2 (Homo sapiens, UniProt Q9GZQ4)
T28 construct: purchased PRESTO-Tango GPCR kit (Roth lab / Addgene)
Summary of the method: as §1

[29] = target: T29, OPN5 (Homo sapiens, UniProt Q6U736)
T29 construct: purchased PRESTO-Tango GPCR kit (Roth lab / Addgene)
Summary of the method: as §1

[30] = target: T30, OXGR1 (Homo sapiens, UniProt Q96P68)
T30 construct: purchased PRESTO-Tango GPCR kit (Roth lab / Addgene)
Summary of the method: as §1

[31] = target: T31, PRRP (Homo sapiens, UniProt P49683)
T31 construct: purchased PRESTO-Tango GPCR kit (Roth lab / Addgene)
Summary of the method: as §1

[32] = target: T32, PTGFR (Homo sapiens, UniProt P43088)
T32 construct: purchased PRESTO-Tango GPCR kit (Roth lab / Addgene)
Summary of the method: as §1

[33] = target: T33, SSTR1 (Homo sapiens, UniProt P30872)
T33 construct: purchased PRESTO-Tango GPCR kit (Roth lab / Addgene)
Summary of the method: as §1

[34] = target: T34, SSTR2 (Homo sapiens, UniProt P30874)
T34 construct: purchased PRESTO-Tango GPCR kit (Roth lab / Addgene)
Summary of the method: as §1

[35] = target: T35, TAAR6 (Homo sapiens, UniProt Q96RI8)
T35 construct: purchased PRESTO-Tango GPCR kit (Roth lab / Addgene)
Summary of the method: as §1

[36] = target: T36, VIPR1 (Homo sapiens, UniProt P32241)
T36 construct: purchased PRESTO-Tango GPCR kit (Roth lab / Addgene)
Summary of the method: as §1

T21 sequence (O43614 whole entry): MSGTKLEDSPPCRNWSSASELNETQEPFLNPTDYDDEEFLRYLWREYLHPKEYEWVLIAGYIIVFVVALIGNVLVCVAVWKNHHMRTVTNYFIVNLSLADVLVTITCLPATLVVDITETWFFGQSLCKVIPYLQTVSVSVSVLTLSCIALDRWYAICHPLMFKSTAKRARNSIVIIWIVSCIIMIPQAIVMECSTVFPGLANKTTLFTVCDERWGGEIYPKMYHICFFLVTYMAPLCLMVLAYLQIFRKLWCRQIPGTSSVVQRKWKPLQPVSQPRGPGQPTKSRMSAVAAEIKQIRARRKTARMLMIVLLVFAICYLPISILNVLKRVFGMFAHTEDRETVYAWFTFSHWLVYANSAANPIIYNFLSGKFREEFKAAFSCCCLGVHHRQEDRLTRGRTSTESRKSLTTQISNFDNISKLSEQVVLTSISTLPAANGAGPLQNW
T16 sequence (Q96P67 whole entry): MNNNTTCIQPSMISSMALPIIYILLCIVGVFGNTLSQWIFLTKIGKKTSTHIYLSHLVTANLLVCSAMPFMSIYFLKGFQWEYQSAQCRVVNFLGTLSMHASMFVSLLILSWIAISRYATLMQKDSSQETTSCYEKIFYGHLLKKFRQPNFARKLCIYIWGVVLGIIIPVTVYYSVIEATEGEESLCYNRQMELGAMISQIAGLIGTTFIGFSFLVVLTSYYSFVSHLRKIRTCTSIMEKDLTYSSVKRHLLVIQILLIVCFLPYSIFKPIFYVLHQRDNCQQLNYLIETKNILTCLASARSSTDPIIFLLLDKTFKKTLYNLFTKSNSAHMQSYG
T25 sequence (Q92633 whole entry): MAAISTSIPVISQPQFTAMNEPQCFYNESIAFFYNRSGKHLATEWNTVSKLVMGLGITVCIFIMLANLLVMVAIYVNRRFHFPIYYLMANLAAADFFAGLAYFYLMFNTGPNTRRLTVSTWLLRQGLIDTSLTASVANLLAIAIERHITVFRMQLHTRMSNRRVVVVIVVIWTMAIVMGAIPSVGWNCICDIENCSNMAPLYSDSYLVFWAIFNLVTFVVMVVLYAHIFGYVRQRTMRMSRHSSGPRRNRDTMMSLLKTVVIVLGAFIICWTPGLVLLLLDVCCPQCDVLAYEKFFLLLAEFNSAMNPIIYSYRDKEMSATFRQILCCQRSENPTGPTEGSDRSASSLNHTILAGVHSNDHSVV
T5 sequence (P30968 whole entry): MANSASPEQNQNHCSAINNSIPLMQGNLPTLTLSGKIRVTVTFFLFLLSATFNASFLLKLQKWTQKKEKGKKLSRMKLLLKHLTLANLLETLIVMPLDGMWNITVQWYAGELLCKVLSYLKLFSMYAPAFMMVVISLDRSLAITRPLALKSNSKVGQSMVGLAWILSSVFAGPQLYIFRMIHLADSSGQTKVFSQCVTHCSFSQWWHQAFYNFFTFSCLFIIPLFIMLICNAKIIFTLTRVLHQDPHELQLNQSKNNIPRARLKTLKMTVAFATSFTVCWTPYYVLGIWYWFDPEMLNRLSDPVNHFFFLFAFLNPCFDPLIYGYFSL
T4 sequence (O95838 whole entry): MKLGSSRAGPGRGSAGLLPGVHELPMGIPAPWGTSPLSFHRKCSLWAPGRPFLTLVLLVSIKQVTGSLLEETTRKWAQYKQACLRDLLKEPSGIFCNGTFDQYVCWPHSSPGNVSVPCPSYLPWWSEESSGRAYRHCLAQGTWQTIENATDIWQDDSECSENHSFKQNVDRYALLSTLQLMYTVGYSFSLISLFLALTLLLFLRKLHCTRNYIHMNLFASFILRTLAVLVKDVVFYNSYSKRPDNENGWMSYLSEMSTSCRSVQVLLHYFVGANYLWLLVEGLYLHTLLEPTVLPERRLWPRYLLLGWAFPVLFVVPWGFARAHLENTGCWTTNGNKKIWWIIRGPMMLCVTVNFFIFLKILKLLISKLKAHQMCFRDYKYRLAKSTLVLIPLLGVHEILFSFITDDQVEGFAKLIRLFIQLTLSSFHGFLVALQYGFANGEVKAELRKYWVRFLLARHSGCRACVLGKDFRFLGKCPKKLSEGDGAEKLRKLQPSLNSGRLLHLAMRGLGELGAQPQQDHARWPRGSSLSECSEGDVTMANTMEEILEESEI
T11 sequence (Q5UAW9 whole entry): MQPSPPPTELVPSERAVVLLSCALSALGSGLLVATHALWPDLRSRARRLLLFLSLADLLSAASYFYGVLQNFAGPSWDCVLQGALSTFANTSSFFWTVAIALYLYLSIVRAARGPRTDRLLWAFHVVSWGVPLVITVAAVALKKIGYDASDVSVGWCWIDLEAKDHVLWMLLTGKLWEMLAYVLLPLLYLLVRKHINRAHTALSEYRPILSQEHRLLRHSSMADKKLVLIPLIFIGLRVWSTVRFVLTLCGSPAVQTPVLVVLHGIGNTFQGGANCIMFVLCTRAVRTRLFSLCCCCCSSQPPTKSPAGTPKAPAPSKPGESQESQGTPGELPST
T8 sequence (P51810 whole entry): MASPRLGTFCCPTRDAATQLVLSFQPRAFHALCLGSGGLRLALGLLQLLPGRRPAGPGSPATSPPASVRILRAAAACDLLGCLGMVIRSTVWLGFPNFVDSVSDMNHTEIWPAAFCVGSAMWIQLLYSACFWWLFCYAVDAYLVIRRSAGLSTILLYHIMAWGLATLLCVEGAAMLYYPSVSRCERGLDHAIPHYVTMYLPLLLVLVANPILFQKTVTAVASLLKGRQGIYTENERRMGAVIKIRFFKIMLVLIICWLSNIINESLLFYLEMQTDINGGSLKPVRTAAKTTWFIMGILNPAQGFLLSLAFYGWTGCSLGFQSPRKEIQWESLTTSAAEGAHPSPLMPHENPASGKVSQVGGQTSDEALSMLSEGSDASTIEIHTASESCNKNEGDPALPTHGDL
T7 sequence (Q96PE1 34-1338): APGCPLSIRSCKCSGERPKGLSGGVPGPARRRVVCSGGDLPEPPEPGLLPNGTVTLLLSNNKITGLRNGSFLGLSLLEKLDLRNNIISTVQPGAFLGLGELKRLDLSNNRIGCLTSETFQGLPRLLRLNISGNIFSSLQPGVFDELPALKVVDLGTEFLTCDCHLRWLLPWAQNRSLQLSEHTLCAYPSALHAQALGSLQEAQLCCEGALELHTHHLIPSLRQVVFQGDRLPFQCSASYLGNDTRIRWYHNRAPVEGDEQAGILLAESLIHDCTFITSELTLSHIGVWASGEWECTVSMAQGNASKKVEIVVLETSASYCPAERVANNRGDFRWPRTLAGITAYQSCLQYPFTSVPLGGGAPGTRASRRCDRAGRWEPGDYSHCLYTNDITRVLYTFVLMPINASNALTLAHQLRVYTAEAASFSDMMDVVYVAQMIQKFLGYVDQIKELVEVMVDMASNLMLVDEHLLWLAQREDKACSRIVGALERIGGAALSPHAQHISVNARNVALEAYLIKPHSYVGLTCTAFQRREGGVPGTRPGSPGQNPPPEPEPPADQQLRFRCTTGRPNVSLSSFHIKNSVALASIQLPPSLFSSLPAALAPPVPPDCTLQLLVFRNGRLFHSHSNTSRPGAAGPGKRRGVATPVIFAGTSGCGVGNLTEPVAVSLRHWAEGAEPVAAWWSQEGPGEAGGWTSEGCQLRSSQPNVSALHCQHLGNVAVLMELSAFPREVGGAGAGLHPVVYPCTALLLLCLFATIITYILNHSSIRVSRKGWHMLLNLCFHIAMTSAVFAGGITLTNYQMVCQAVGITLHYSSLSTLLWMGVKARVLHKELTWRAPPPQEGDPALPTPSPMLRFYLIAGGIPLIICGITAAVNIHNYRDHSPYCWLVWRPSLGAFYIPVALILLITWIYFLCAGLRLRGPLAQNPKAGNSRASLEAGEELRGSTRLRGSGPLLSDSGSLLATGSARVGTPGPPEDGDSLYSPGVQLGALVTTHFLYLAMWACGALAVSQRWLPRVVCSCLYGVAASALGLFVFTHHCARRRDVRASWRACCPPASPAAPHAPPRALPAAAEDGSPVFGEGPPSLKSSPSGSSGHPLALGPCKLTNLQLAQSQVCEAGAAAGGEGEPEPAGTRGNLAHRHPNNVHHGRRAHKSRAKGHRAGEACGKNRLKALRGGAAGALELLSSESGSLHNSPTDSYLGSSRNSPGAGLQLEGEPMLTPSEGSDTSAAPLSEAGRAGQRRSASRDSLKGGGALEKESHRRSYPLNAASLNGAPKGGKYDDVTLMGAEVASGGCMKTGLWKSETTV
T20 sequence (P49019 whole entry): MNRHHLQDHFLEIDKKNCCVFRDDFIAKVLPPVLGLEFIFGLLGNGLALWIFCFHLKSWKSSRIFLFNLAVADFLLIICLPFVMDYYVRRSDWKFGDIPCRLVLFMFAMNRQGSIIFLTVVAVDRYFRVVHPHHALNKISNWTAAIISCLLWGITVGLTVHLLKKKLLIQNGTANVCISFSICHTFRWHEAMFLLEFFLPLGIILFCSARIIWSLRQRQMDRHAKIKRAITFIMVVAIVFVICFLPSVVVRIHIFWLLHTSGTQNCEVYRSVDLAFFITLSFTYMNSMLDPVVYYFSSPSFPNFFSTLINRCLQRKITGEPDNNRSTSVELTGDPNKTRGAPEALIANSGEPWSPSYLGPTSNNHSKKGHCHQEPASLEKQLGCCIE
T33 sequence (P30872 whole entry): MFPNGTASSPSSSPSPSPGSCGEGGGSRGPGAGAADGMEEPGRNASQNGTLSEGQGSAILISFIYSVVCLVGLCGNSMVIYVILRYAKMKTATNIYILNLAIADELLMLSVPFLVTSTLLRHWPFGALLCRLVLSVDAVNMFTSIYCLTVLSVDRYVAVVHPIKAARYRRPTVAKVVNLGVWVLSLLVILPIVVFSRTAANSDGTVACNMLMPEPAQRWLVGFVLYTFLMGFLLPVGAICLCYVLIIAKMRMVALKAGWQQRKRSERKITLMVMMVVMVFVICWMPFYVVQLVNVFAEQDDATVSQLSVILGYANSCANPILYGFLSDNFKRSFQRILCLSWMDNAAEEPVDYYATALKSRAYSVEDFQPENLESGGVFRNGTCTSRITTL

Row | SMILES | GPCR activation (heatmap value) [1] | GPCR activation (heatmap value) [2] | GPCR activation (heatmap value) [3] | GPCR activation (heatmap value) [4] | GPCR activation (heatmap value) [5] | GPCR activation (heatmap value) [6] | GPCR activation (heatmap value) [7] | GPCR activation (heatmap value) [8] | GPCR activation (heatmap value) [9] | GPCR activation (heatmap value) [10] | GPCR activation (heatmap value) [11] | GPCR activation (heatmap value) [12] | GPCR activation (heatmap value) [13] | GPCR activation (heatmap value) [14] | GPCR activation (heatmap value) [15] | GPCR activation (heatmap value) [16] | GPCR activation (heatmap value) [17] | GPCR activation (heatmap value) [18] | GPCR activation (heatmap value) [19] | GPCR activation (heatmap value) [20] | also measured
1 | CC(C)Cc1ncc(CCCCNC(=N)N)[nH]c1=O [3-Homo] | 0.6163 | 0.1974 | -0.2415 | -0.3479 | -0.5775 | -1.142 | -0.5918 | -0.07136 | -0.8234 | -0.4672 | 0.207 | 0.4742 | -0.3064 | -0.2115 | 0.09636 | -0.5831 | -0.5192 | -1.403 | -0.3175 | -0.8056 | GPCR activation (heatmap value) [21]: -1.63; GPCR activation (heatmap value) [22]: -0.02426; GPCR activation (heatmap value) [23]: -0.1727; GPCR activation (heatmap value) [24]: -0.1726; GPCR activation (heatmap value) [25]: -0.9265; GPCR activation (heatmap value) [26]: 0.05755; GPCR activation (heatmap value) [27]: -1.3275; GPCR activation (heatmap value) [28]: 0.3619; GPCR activation (heatmap value) [29]: -0.4496; GPCR activation (heatmap value) [30]: 0.2343; GPCR activation (heatmap value) [31]: 1.001; GPCR activation (heatmap value) [32]: 0.3992; GPCR activation (heatmap value) [33]: -0.2346; GPCR activation (heatmap value) [34]: 0.327; GPCR activation (heatmap value) [35]: 0.5054; GPCR activation (heatmap value) [36]: -0.06399
2 | CC(C)Cc1ncc(CCCNC(=N)N)[nH]c1=O [compound 3] | 0.4729 | -0.3239 | 0.059 | 0.1898 | 0.3051 | 0.3323 | 0.8185 | 0.5685 | -0.2269 | 0.1913 | 0.4215 | 0.3321 | 0.788 | -0.1336 | 0.1606 | 0.0221 | -0.4548 | -1.186 | 0.6597 | -0.032 | GPCR activation (heatmap value) [21]: -0.2618; GPCR activation (heatmap value) [22]: 0.5899; GPCR activation (heatmap value) [23]: 0.1369; GPCR activation (heatmap value) [24]: -0.2048; GPCR activation (heatmap value) [25]: -0.4869; GPCR activation (heatmap value) [26]: 0.09111; GPCR activation (heatmap value) [27]: -0.2593; GPCR activation (heatmap value) [28]: 0.09545; GPCR activation (heatmap value) [29]: -1.123; GPCR activation (heatmap value) [30]: -0.2265; GPCR activation (heatmap value) [31]: 1.542; GPCR activation (heatmap value) [32]: 0.901; GPCR activation (heatmap value) [33]: 0.2369; GPCR activation (heatmap value) [34]: -0.806; GPCR activation (heatmap value) [35]: 0.2505; GPCR activation (heatmap value) [36]: 0.4975
